Experiment [1] relates to contextually elicited conditioned gaping (anticipatory nausea) in rats. Kind of experiment: Anticipatory nausea: contextually elicited conditioned gaping in rats. The format is in vivo, male Sprague-Dawley rats. As to conditions: for Contextually elicited conditioned gaping compared to VEH controls: 45 min before test. The source says: (§1) Animal procedures complied with the Canadian Council on Animal Care, and the protocols were approved by the Institutional Animal Care Committee at University of Guelph. Animal studies are reported in compliance with the ARRIVE guidelines (Kilkenny et al., 2010; McGrath and Lilley, 2015). A total of 200 näive male Sprague-Dawley rats, obtained from Charles River Laboratories (St Constant, Quebec), were used for all in vivo studies. Rats were individually housed (for acute nausea studies) or pair-housed [for anticipatory nausea and light-dark emergence studies] in home cages made of opaque white plastic (48×26×20 cm), containing bed-o-cob bedding from Harlan Laboratories, Inc. (Mississauga, Ontario), a brown paper towel, and Crinkl'Nest™ from The Andersons, Inc. (Maumee, Ohio). Additionally, in the home cage, rats were provided with a soft white paper container that was 14 cm long and 12 cm in diameter. All rats were subjected to an ambient temperature of 21° C. and a 12/12 h light-dark schedule (lights off at 07:00 h) and maintained on food (Highland Rat Chow [8640]) and water ad libitum. For the acute and anticipatory nausea studies, their body weights ranged from 263 to 329 g on the day of conditioning. For the light-dark emergence studies, their body weights ranged from 320 to 387 g on the day of test.
For in vivo experiment 2, contextually elicited conditioned gaping (a model of anticipatory nausea) was measured using a distinctive conditioning chamber made of opaque black Plexiglass (22.5×26×20 cm) with an opaque lid that sat on a table with a clear glass top. A mirror beneath the chamber at a 45° angle facilitated viewing of the ventral surface of the rat to observe orofacial responses. The conditioning chamber was in a dark room next to a 25 W light source. A video camera that was fire-wired into a computer was focused on the mirror to record each rat's orofacial reactions during the 5 min test trial. The video tapes were later scored using ‘The Observer’ software. To assess activity, an activity chamber made of white Plexiglas (60×25×25 cm) was used, illuminated by a red light found in a different room that the contextual chamber was used to create a different context from the AN chamber. The activity of each rat was captured by video camera and sent to the Ethovision software program (Noldus, Inc., NL) to measure distance (cm) travelled.
To compare the potential of HU-580 and CBDA to reduce anticipatory nausea, the contextually elicited conditioned gaping paradigm was used (e.g. Limebeer et al., 2010; Rock et al., 2014). Rats underwent four conditioning trials during which the distinctive context was paired with 127 mg·kg^−1 LiCl. On each trial, rats were injected with LiCl and then immediately placed in the conditioning chamber for 30 min. This procedure was repeated four times with a 48 h interval between conditioning trials. For the test trial, rats were randomly assigned to one of five treatment groups (n=6 per group): VEH, 0.1 μg·kg^−1 CBDA, 0.1 μg·kg^−1 HU-580, 0.01 μg·kg^−1 CBDA, […] HU-580. Pretreatments were injected 45 min before the rats were given an saline injection (20 mL·kg^−1 i.p.) and individually placed in the conditioning (contextual) chamber for 5 min, and orofacial responses were video recorded. To investigate the mechanism of action of HU-580, two additional groups of rats were administered 0.1 mg·kg^−1 WAY-VEH (n=8), 0.1 mg·kg^−1 WAY-0.1 μg·kg^−1 HU-580 (n=8). VEH or WAY100635 were administered 15 min before […] or VEH. The video tapes from the test trial were scored by an observer blind to the experimental conditions using ‘The Observer’ for the behaviors of gaping (large openings of the mouth and jaw, with lower incisors exposed). […]

In experiment [2] the test system is LiCl-induced conditioned gaping (acute nausea) in rats. Kind of experiment: Acute nausea: LiCl-induced conditioned gaping (taste reactivity test) in rats. As to conditions: for LiCl-induced conditioned gaping relative to vehicle: 45 min before conditioning; for Lowest effective dose for suppression of acute nausea-induced conditioned gaping: i.p., rats (FIG. 3). Type of experiment: in vivo, male Sprague-Dawley rats.
Description: as §1
For the studies of acute nausea (in vivo experiment 1), rats were placed in taste reactivity (Grill and Norgren, 1978) chambers with their cannula attached to an infusion pump (Model KDS100, KD Scientific, Holliston, Mass., USA) for fluid delivery. The taste reactivity chambers were made of clear Plexiglas (22.5×26×20 cm) that sat on a table with a clear glass top. A mirror beneath the chamber at a 45° angle facilitated viewing of the ventral surface of the rat to observe orofacial responses. The conditioning chamber was in a dark room next to a 25 W light source. A video camera (Sony DCR-HC48, Henry's Cameras, Waterloo, ON, Canada) fire-wired into a computer was focused on the mirror and used to record each rat's orofacial reactions during the 2 min taste reactivity test. The video tapes were later scored using ‘The Observer’ (Noldus Information Technology Inc., Leesburg, Va., USA) software.
All rats were surgically implanted with an intraoral cannula according the procedures described by Limebeer et al. (2010). On the day of surgery, the rats were injected with an antibiotic (Derapin: […] s.c.; Pfizer Animal Health, Pfizer Canada Inc, Kirkland, Quebec, Canada) 30 min prior to being anaesthetized with isoflurane (4-5% induction, 1.5% maintenance in O2). Surgical plane anesthesia, as indicated by absence of the hind limb withdrawal reflex and defined by the Canadian Council of Animal Care, was induced before any surgery began, and was adjusted as necessary. Once sufficient anesthesia had been induced, a 2 cm^2 section of skin was shaved at the back of the neck at the level of the scapula. The skin was prepared by cleaning with soap (Bactistat; Ecolab, St. Paul, Minn., USA) and wiping with 70% isopropyl alcohol followed by 7% Betadine solution (Purdue Products L.P., Stamford, Conn., USA). Each rat was then administered a 5 mg·kg^−1 injection (i.p.) of the anti-inflammatory/analgesic drug carprofen (Rimadyl; Pfizer Canada Inc., Kirkland, Quebec, Canada). A thin-walled 15-gauge stainless steel needle was inserted into the shaved area on the neck, directed subcutaneously around the ear and brought out behind the first molar inside the mouth. A 10 cm length of Intra Medic PE90 tubing (Clay Adams Brand; Becton Dickinson and Co., Sparks, Md., USA) with an inner diameter of 0.86 mm and an outer diameter of 1.27 mm was then inserted through the needle after which the needle was removed. Betadine (10%) was applied to the puncture site and three elastic discs (2 cm^2) were placed over the exposed end of the tubing and drawn to the skin at the back of the neck for the purpose of stabilizing the cannula. […]

[3] abbreviates: 0.1 μg·kg−1 HU-580 i.p., WAY100635 0.1 mg·kg−1 15 min before.

The structures appear in SMILES notation.

For `C=C(C)[C@@H]1CCC(C)=C[C@H]1c1c(O)cc(CCCCC)c(C(=O)O)c1O` [CBDA, Cannabidiolic acid], the “Contextually elicited conditioned gaping compared to VEH controls” value in experiment [1] (0.01 μg·kg−1 i.p.) is listed as “but not CBDA, suppressed contextually elicited conditioned gaping”; in experiment [1] (0.1 μg·kg−1 i.p., P<0.05), “reduced conditioned gaping”. Also, the “LiCl-induced conditioned gaping relative to vehicle” value in experiment [2] (0.1 μg·kg−1 i.p.) was “subthreshold”; in experiment [2] (1 μg·kg−1 i.p., P<0.05), “reduced LiCl-induced gaping responses relative to vehicle”. The “Lowest effective dose for suppression of acute nausea-induced conditioned gaping” value in experiment [2] came out at 1 µg/kg.
For the molecule `C=C(C)[C@@H]1CCC(C)=C[C@H]1c1c(O)cc(CCCCC)c(C(=O)OC)c1O` [HU-580, Cannabidiolic Acid Methyl Ester], the “Contextually elicited conditioned gaping compared to VEH controls” value in experiment [1] (0.01 μg·kg−1 i.p.) was “gaping significantly less than VEH controls”; in experiment [1] (0.1 μg·kg−1 i.p., P<0.05), “reduced conditioned gaping”. In experiment [1] (setting [3]), the “Suppressive effect on anticipatory nausea after 5-HT1A antagonist pretreatment” value is “blocked by pretreatment with WAY100635”. Besides, the “Dose as low as which contextually elicited conditioned gaping is suppressed” value in experiment [1] (i.p., rats) amounted to 0.01 µg/kg. In experiment [2] (setting [3]), the “Suppressive effect on acute nausea after 5-HT1A antagonist pretreatment” value is recorded as “blocked by WAY100635”. Besides, the “LiCl-induced conditioned gaping relative to vehicle” value is given as “reduced LiCl-induced conditioned gaping behavior relative to vehicle” in experiment [2] (0.1 μg·kg−1 i.p.) and “reduced LiCl-induced gaping responses relative to vehicle” in experiment [2] (1 μg·kg−1 i.p., P<0.05). Also, the “Lowest effective dose for suppression of acute nausea-induced conditioned gaping” value in experiment [2] turned out to be 0.1 µg/kg.

The values are drawn from US11440870B2, “Cannabidiolic acid esters compositions and uses thereof” (Yissum Research Development Company of the Hebrew …, priority 2017, dated 2022).
